“Also recorded” adds a separate entry of the source.
How the values were obtained:
[1] = test system: human ovarian adenocartcinoma IGROV/ADR; experiment: Death of adriamycine resistant IGROV/ADR cells by daunomycin with recombinant HGH; format: cell-based
Description: To test the possibility of using the object of the present invention on non-lymphoid tumors, the inventors have used HGH to try to invert the “adriamycine resistant” phenotype of cells isolated from a human ovarian adenocartcinoma IGROV/ADR (Bénard J et coll., 1985, Cancer Res, 45:4970-4979).
FIG. 5: Effect of growth hormone on the apoptosis of the IGROV/ADR line, induced by daunomycin; the percentage of dead cells (IP+) is indicated on the ordinate, and different columns corresponding to the different concentrations of HGH used (0, 5, 50, 500, 1000 ng/ml); the concentrations of daunomycin are indicated on the abscissa in μM.

[2] = test system: human renal carcinoma cells (RCC) HIEG; experiment: Number of living RCC cells 48 h after daunomycin, flow cytometry; format: cell-based
Procedure: Erythropoietin (EPO), another molecule than HGH belonging to the same family of cytokines of class I, has been tested on human renal carcinoma cells (RCC) HIEG.
4.10^4 RCC cells have been transfected in a transitory manner with the help of an Effecten^R kit, or with 3 μg of plasmid carrying the gene encoding for EPO (RCC-EPO cells), or with 3 μg of a plasmid coding for the resistance to neomycin (RCC-Neo cells) as the negative control. After 48 hours, the RCC were combined with daunomycin at two different concentrations: 0.3 and 0.6 μM. The number of surviving cells was measured 48 hours later by flow cytometry (FIG. 6).
FIG. 6: Effect of erythropoietin on the apoptosis of the human renal carcinoma line HIEG, induced by daunomycin: for each of the experiments 1 and 2, the number of living cells is indicated on the ordinate, the white columns correspond to the RCC-Neo cells, the black columns correspond to the RCC-EPO cells; the concentrations of daunomycin are indicated on the abscissa in μM.

[3] = test system: U937-HGH and U937-Neo cells; experiment: Propidium iodide incorporation (flow cytometry) after 48 h culture with recombinant -TNF; format: cell-based, human; conditions: U937-HGH line versus U937 / U937-Neo control
Description: A selection gene (neomycin resistant, Neo^R) and the gene encoding for human growth hormone (HGH) have been co-transfected in the human promyeloid leukemic line U937. By comparing the transfected line U937-HGH (which produces in a constituent fashion HGH at physiologic doses), either to the parent line U937, or to a line transfected with Neo^R alone, there are observed by different methodological approaches, that the U937-HGH line dies more under the effect of the tumor necrosis factor (-TNF). This cytokine secreted by different types of immune cells has in an anti-tumor activity (Harakana, K et al., 1984, Int J Cancer, 34:263-267) and is capable of promoting the activation of NF-κB (Baeuerle P A, Henkel T, 1994, Ann Rev Immunol, 12:141-179).
The U937-HGH cells and the U937-Neo control cells have been cultured for 48 hours in the presence of increasing concentrations of recombinant -TNF. As a result of this culture, the washed cells have been incubated in the presence of propidium iodide which is incorporated in the DNA of the dead cells. These cells are analyzed by flowing cytometry. […]

NF-κB [4] = experiment: Gel delay analysis of nuclear extracts for NF-κB after -TNF stimulation; format: cell-based, human; conditions: U937-HGH cells versus U937 control cells, -TNF or -TNF and cycloheximide
Description: On this gel were deposited nuclear extracts from the U937-HGH and U937 cells (the mother line having served for obtaining the U937-HGH lines) subjected to different inductors including -TNF or -TNF and cycloheximide (inhibitor of protein synthesis).
FIG. 2: The effect of growth hormone on the translocation of NF-κB; column 1 corresponds to the control cells U937, column 2 corresponds to the U937 cells treated with -TNF+cycloheximide, column 3 corresponds to the U937 cells treated with -TNF, column 4 corresponds to the U937 cells treated with -TNF+a mutant NF-κB probe, column 5 corresponds to the U937 cells treated with -TNF +a homologous NF-κB probe, column 6 corresponds to the control cells U937-HGH, column 7 corresponds to the U937-HGH cells treated with -TNF+cycloheximide, column 8 corresponds to the U937-HGH cells treated with -TNF; the presence of NF-κB is indicated by an arrow.

NF-κB [5] = experiment: NF-κB-driven CAT reporter ELISA after -TNF stimulation; format: cell-based, human; conditions: U937-HGH versus U937-Neo cells
Procedure: The cells are transfected by electroporation then incubated with -TNF. At the end of culturing, the cells are lysated and the activated CAT is measured by an commercial ELISA (Boehringer-Mannheim), according to the directions of the supplier.
FIG. 3: Effect of growth hormone on the reporter activity CAT; the percentage of variation of CAT activity is indicated on the abscissa; the two left columns show the two experiments carried out on U937-Neo cells, and the two right columns represent the two independent experiments carried out on U937-HGH cells.

[6] = test system: U937-HGH and U937-Neo cells; experiment: Death mediated by daunomycin in U937-HGH versus control line (IP+ cells); format: cell-based, human
Description: FIG. 4: Effect of growth hormone on apoptosis induced by daunomycin; the percentage of the dead cells (IP+) is indicated on the ordinate, the white columns corresponding to the cells of the strain U937-Neo, the black columns corresponding to the cells of the strain U937-HGH; the indicated percentages show the increase of mortality of the cells; the concentrations of daunomycin are indicated on the abscissa in μM.

human monocytes = experiment: Death of human monocytes after engagement of APO1/CD95/Fas; format: cell-based
NF-κB [7] = conditions: human monocytes, exogenous recombinant HGH; cited from earlier work

Row | Molecule | toxic effect of daunomycin on IGROV/ADR cells ([1]; HGH 0 ng/ml) | numbers of living cells ([2]; Experiment 1, RCC-EPO cells, daunomycin 0.3 μM) | numbers of living cells ([2]; Experiment 1, RCC-EPO cells, daunomycin 0.6 μM) | numbers of living cells ([2]; Experiment 1, RCC-Neo cells, daunomycin 0.3 μM) | numbers of living cells ([2]; Experiment 1, RCC-Neo cells, daunomycin 0.6 μM) | numbers of living cells ([2]; Experiment 2, RCC-EPO cells, daunomycin 0.3 μM) | numbers of living cells ([2]; Experiment 2, RCC-EPO cells, daunomycin 0.6 μM) | numbers of living cells ([2]; Experiment 2, RCC-Neo cells, daunomycin 0.3 μM) | numbers of living cells ([2]; Experiment 2, RCC-Neo cells, daunomycin 0.6 μM) | effect of HGH on death mediated by -TNF [3] | presence of NF-κB in the nuclei (NF-κB [4]) | CAT activity, reflected by the presence of NF-κB (NF-κB [5]) | sensitivity to death mediated by daunomycin [6] | dose of HGH giving maximum effect ([1]; lowest dose of HGH used, sensitisation to daunomycin) | effect of recombinant HGH on sensitivity of IGROV/ADR cells to daunomycin ([1]; recombinant HGH (Saizen) added to culture) | death mediated through the molecule Fas (human monocytes) | synthesis of proto-oncogene Bc1-2 (human monocytes) | activation of NF-κB after stimulation by LPS (NF-κB [7])
1 | COc1cccc2c1C(=O)c1c(O)c3c(c(O)c1C2=O)C[C@@](O)(C(C)=O)C[C@@H]3O[C@H]1C[C@H](N)[C@H](O)[C@H](C)O1 [daunomycin] | insensitive to the toxic effect | 3487 | 8551 | 11382 | 10179 | 2693 | 4739 | 8891 | 7001 | – | – | – | – | – | – | – | – | –
2 | HGH: human growth hormone (SEQ ID NO 2); produced by transfected U937-HGH line or recombinant exogenous HGH (Saizen, Serono) (protein, listed as Homo sapiens) MATGSRTSLLLAFGLLCLPWLQEGSAFPTIPLSRLFDNASLRAHRLHQLAFDTYQEFNPQTSLCFSESIPTPSNREETQQKSNLELLRISLLLIQSWLEPVQFLRSVFANSLVYGASDSNVYDLLKDLEEGIQTLMGRLEDGSPRTGQIFKQTYSKFDTNSHNDDALLKNYGLLYCFRKDMDKVETFLRIVQCRSVEGSCGF | – | – | – | – | – | – | – | – | – | accelerates the death of these cells; also recorded: increases their susceptibility to the induction of death | decreased relative to the control cells | decreased in the U937-HGH cells relative to the control cells | more sensitive than the control line | 5 ng/mL | renders these cells sensitive to daunomycin | decreases the death | increasing the synthesis | inhibits the activation of NF-κB

Reference: patent publication US6914046B1, “NF-κB activation inhibitors, and their pharmaceutical uses” (Centre National de la Recherche Scientifique, priority 1999, dated 2005)
